Reference: patent US9895352B2, “Indolinone compounds and uses thereof” (Oncternal Therapeutics, Inc., priority 2014, dated 2018)
Where “and” joins values, the source holds several entries; their conditions need not be identical. Identical values can stand only once. Like-named read-outs stand apart in the source and are kept apart here. Each block holds one compound with its values, some of them ahead of it.

How the values were obtained:
A4573 tumor cells [1] = assay: similar rat xenograft study; format: in vivo; settings: compared to the vehicle control
[2] = Half-life in rat hepatocytes; format: in vitro ADME; settings: read-out: Half life of cmpds
Experimental: (§1) In another study, metabolism of compounds in hepatocytes from various species was examined. Hepatocytes were contacted with a compound, and the half-life of the compound was determined.

[3] = Pharmacokinetics, continuous infusion study in dog; format: in vivo; settings: for Vd / clearance / half-life: plasma, iv
Experimental: (§2) Certain pharmacokinetics parameters were determined for certain compounds in vivo for intravenous and oral administration. Briefly, compounds were formulated and administered using IV bolus, continuous IV infusion or oral administration. Blood was collected at multiple time points over 24 hours and processed into plasma. Plasma was analyses for parent using LC/MS/MS. Certain parameters for certain compounds were obtained in duplicate.

MCF7 = assay: CCK-8 tetrazolium tumor cell growth inhibition, MCF7; format: cell-based; settings: Homo sapiens; MCF7, Breast, no ETS rearrangement
Experimental: (§3) A modified tetrazolium salt assay using the CCK-8 kit (Sigma-Aldrich; St Louis, Mo.) was used to measure the inhibition of human tumor cell growth. Tumor cells (5000-7500 per well) were added to 96 well plates and allowed to attach for 4-5 hours. Compounds were serially diluted and added in triplicate at a concentration of 0.02 to 5 μM. DMSO was included as a vehicle control. Cells were incubated in the presence of compound for 3 days. After incubation CCK-8 reagent was added to each well and incubated for 2-4 hours. Viable cells were quantitated spectrophotometrically at a wavelength of 450 nm. Percent viability of each sample was calculated from the A450 values as follows: % viability=(A450 nm sample/A450 nm DMSO-treated cells×100). […] IC50 activities of particular compounds were determined using SKES cells (Ewing Sarcoma cell line).

[4] = Half-life in human hepatocytes; format: in vitro ADME; settings: read-out: Half life of cmpds
Experimental: as §1

[5] = mouse liver microsome, no cofactor, 60 min
in vitro [6] = settings: mouse
[7] = human liver microsome, no cofactor, 60 min
PANC1 = assay: CCK-8 tetrazolium tumor cell growth inhibition, PANC1; format: cell-based; settings: Homo sapiens, PANC-1; PANC1, Pancreas, no ETS rearrangement
Experimental: as §3

in vitro [8] = settings: rat
PC3 = assay: CCK-8 tetrazolium tumor cell growth inhibition, PC3; format: cell-based; settings: Homo sapiens, PC-3; PC3, Prostate, no ETS rearrangement
Experimental: as §3

MDA-MB-231 = assay: CCK-8 tetrazolium tumor cell growth inhibition, MDA-MB-231; format: cell-based; settings: Homo sapiens; MDA-MB-231, Breast, increased ETV1
Experimental: as §3

[9] = Half-life in dog hepatocytes; format: in vitro ADME; settings: read-out: Half life of cmpds
Experimental: as §1

[10] = Half-life in mouse hepatocytes; format: in vitro ADME; settings: read-out: Half life of cmpds
Experimental: as §1

BxPC3 = assay: CCK-8 tetrazolium tumor cell growth inhibition, BxPC3; format: cell-based; settings: Homo sapiens, BXPC-3; BxPC3, Pancreas, increased FLI1
Experimental: as §3

A4573 = assay: CCK-8 tetrazolium tumor cell growth inhibition, A4573; format: cell-based; settings: Homo sapiens; A4573, ES, EWS-FLI1 Type 3
Experimental: as §3

[11] = Pharmacokinetics after IV and oral administration; format: in vivo; settings: BALB/c mice or Sprague Dawley rats; for Cmax / half-life / Tmax / bioavailability: plasma; for Tmax: read-out: Tmax
Experimental: as §2

[12] = Pharmacokinetics, continuous infusion study in rat; format: in vivo; settings: for Vd / clearance / half-life: plasma, iv
Experimental: as §2

TC71 = assay: CCK-8 tetrazolium tumor cell growth inhibition, TC71; format: cell-based; settings: Homo sapiens, TC-71; TC71, ES, EWS-FLI1 Type 1
Experimental: as §3

A4573 tumor cells [13] = assay: A4573 xenograft study in mice; format: in vivo; settings: A4573 tumors, relative to vehicle control
[14] = rat liver microsome, no cofactor, 60 min
[15] = dog liver microsome, no cofactor, 60 min
LNCap = assay: CCK-8 tetrazolium tumor cell growth inhibition, LNCap; format: cell-based; settings: Homo sapiens, Prostate, rearranged ETV1
Experimental: as §3

in vitro [16] = settings: dog
[17] = system: SKES cells (Ewing Sarcoma cell line); assay: CCK-8 tetrazolium tumor cell growth inhibition, SKES; format: cell-based; settings: Homo sapiens
Experimental: as §3

in vitro [18] = settings: human liver microsomes
[19] = iv, 5 mg/kg, 5 mg/kg IV, captisol
[20] = iv, 10 mg/kg, 10 mg/kg IV, captisol
[21] = po, 25 mg/kg, 25 mg/kg po, labrasol:tetraglycol:water 72:8:20
[22] = po, 100 mg/kg, 100 mg/kg po, PEG-400/tween
[23] = po, 100 mg/kg, 100 mg/kg po, labrasol/tetraglycol
[24] = 72 h, SKES cells, 3 days with compound, CCK-8 (TABLE 3)
[25] = 20 mg/kg po, labrasol/tetraglycol 9:1
[26] = 20 mg/kg po, labrasol:tetraglycol:water 72:8:20
[27] = po, 20 mg/kg, 20 mg/kg po, labrasol/tetraglycol 9:1
[28] = po, 20 mg/kg, 20 mg/kg po, labrasol:tetraglycol:water 72:8:20

SMILES: O=C(CC1(O)C(=O)Nc2c(Cl)ccc(Cl)c21)c1ccc(C2CC2)cc1 (single isomer, unassigned) [Cmpd 14, 4,7-Dichloro-3-(2-(4-cyclopropylphenyl)-2-oxoethyl)-3-hydroxyindolin-2-one]
tumor growth inhibition (TGI) (A4573 tumor cells [1]): 53%
half-life [2]: 0.457 h
Css(3-24 h) ([3]; 10 mg/kg/day): 210 ng/mL and 0.56 μM
MRT24-inf ([3]; 10 mg/kg/day): 2.5 h
Css(3-24 h) ([3]; 25 mg/kg/day): 466 ng/mL and 1.24 μM
MRT24-inf ([3]; 25 mg/kg/day): 2.2 h
Vd ([3]; 10 mg/kg/day): 5.64 L/kg
clearance ([3]; 10 mg/kg/day): 33.6 mL/min/kg
half-life ([3]; 10 mg/kg/day): 1.9 h
Vd ([3]; 25 mg/kg/day): 5.66 L/kg
clearance ([3]; 25 mg/kg/day): 37.3 mL/min/kg
half-life ([3]; 25 mg/kg/day): 1.7 h
IC50 (MCF7): > 5 µM
half-life [4]: 1.26 h
Remaining (NCF = 60 min) [5]: 102.0%
half-life (in vitro [6]; microsomes): 0.385 h
Remaining (NCF = 60 min) [7]: 104.5%
IC50 (PANC1): > 5 µM
half-life (in vitro [8]; microsomes): 2.8 min
IC50 (PC3): > 5 µM
IC50 (MDA-MB-231): < 5 µM
half-life [9]: 0.338 h
half-life [10]: 1.05 h
IC50 (BxPC3): < 5 µM
IC50 (A4573): < 5 µM
AUC ([11]; 5 mg/kg IV, captisol): 4131 h * (ng/mL)
AUC ([11]; 10 mg/kg IV, captisol): 6059 h * (ng/mL)
AUC ([11]; 25 mg/kg po, labrasol:tetraglycol:water 72:8:20): 13152 h * (ng/mL)
AUC ([11]; 100 mg/kg po, PEG-400/tween): 92219 h * (ng/mL)
AUC ([11]; 100 mg/kg po, labrasol/tetraglycol): 146167 h * (ng/mL)
Cmax [11, 19]: 10900 ng/mL
half-life [11, 19]: 0.8 h
Tmax [11, 19]: 0.03 h
Cmax [11, 20]: 39800 ng/mL
half-life [11, 20]: 1.43 h
Tmax [11, 20]: 0.03 h
Cmax [11, 21]: 2770 ng/mL
bioavailability [11, 21]: 64%
half-life [11, 21]: 3.1 h
Tmax [11, 21]: 1 h
Cmax [11, 22]: 26000 ng/mL
bioavailability [11, 22]: 100%
half-life [11, 22]: 3.83 h
Tmax [11, 22]: 0 h
Cmax [11, 23]: 33000 ng/mL
bioavailability [11, 23]: 100%
half-life [11, 23]: 7.71 h
Tmax [11, 23]: 2 h
Css(3-24 h) ([12]; 24 mg/kg/day): 344 ng/mL and 0.91 μM
MRT24-inf ([12]; 24 mg/kg/day): 1.11 h
Css(3-24 h) ([12]; 96 mg/kg/day): 1376 ng/mL and 3.7 μM
MRT24-inf ([12]; 96 mg/kg/day): 1.73 h
Vd ([12]; 24 mg/kg/day): 3.46 L/kg
clearance ([12]; 24 mg/kg/day): 48.7 mL/min/kg
half-life ([12]; 24 mg/kg/day): 0.824 h
Vd ([12]; 96 mg/kg/day): 4.23 L/kg
clearance ([12]; 96 mg/kg/day): 49.6 mL/min/kg
half-life ([12]; 96 mg/kg/day): 1 h
IC50 (TC71): < 5 µM
tumor growth inhibition (TGI) (A4573 tumor cells [13]; 100 mg/kg bid oral): 57%
Remaining (NCF = 60 min) [14]: 97.6%
Remaining (NCF = 60 min) [15]: 97.1%
IC50 (LNCap): < 5 µM

SMILES: COc1ccc(C(=O)CC2(O)C(=O)Nc3c(Cl)ccc(Cl)c32)cc1 (single isomer, unassigned) [Cmpd 2, 4,7-Dichloro-3-hydroxy-3-[2-(4-methoxyphenyl-2-oxoethyl)]-1,3-dihydroindol-2-one]
tumor growth inhibition (TGI) (A4573 tumor cells [1]): 87%
IC50 (MCF7): > 5 µM
half-life (in vitro [16]; microsomes): 0.505 h
Remaining (NCF = 60 min) [5]: 90.2%
Remaining (NCF = 60 min) [7]: 112.1%
IC50 (PANC1): > 5 µM
half-life (in vitro [8]; microsomes): 3.8 min
IC50 (PC3): > 5 µM
IC50 (MDA-MB-231): < 5 µM
IC50 [17, 24]: < 5 µM
IC50 ([17]; SKES, ES, EWS-FLI1 Type 2): < 5 µM
IC50 (BxPC3): < 5 µM
IC50 (A4573): < 5 µM
AUC ([11]; 5 mg/kg IV, captisol): 1991 h * (ng/mL)
% F [11, 25]: 49%
AUC [11, 25]: 3896 h * (ng/mL) and 3890 h * (ng/mL)
% F [11, 26]: 57%
AUC [11, 26]: 4574 h * (ng/mL)
Cmax [11, 19]: 9380 ng/mL
Tmax [11, 19]: 0.033 h
Cmax [11, 27]: 2240 ng/mL
bioavailability [11, 27]: 40%
half-life [11, 27]: 1.6 h
Tmax [11, 27]: 1 h
Cmax [11, 28]: 2840 ng/mL
bioavailability [11, 28]: 47%
half-life [11, 28]: 1.5 h
Tmax [11, 28]: 1 h
IC50 (TC71): < 5 µM
tumor growth inhibition (TGI) (A4573 tumor cells [13]; 200 mg/kg bid oral): did not show TGI
Remaining (NCF = 60 min) [14]: 92.7%
Remaining (NCF = 60 min) [15]: 100.6%
IC50 (LNCap): < 5 µM

half-life [2]: 0.313 h
half-life [4]: 1.06 h
half-life (in vitro [16]; liver microsomes): 0.402 h
half-life (in vitro [6]; liver microsomes): 0.16 h
Remaining (NCF = 60 min) [7]: 99.4%
half-life (in vitro [8]; liver microsomes): 1.3 min
half-life (in vitro [18]): 0.383 h
half-life [9]: 0.51 h
half-life [10]: 1 h
IC50 [17, 24]: < 5 µM
IC50 ([17]; SKES, ES, EWS-FLI1 Type 2): < 5 µM
AUC ([11]; 5 mg/kg IV, captisol): 3738 h * (ng/mL)
AUC [11, 25]: 7497 h * (ng/mL)
AUC [11, 26]: 11029 h * (ng/mL)
Cmax [11, 19]: 14300 ng/mL
half-life [11, 19]: 0.8 h
Tmax [11, 19]: 0.033 h
Cmax [11, 27]: 3220 ng/mL
bioavailability [11, 27]: 50%
half-life [11, 27]: 1.4 h
Tmax [11, 27]: 1 h
Cmax [11, 28]: 6420 ng/mL
bioavailability [11, 28]: 74%
half-life [11, 28]: 0.9 h
Tmax [11, 28]: 1 h
SMILES: O=C(CC1(O)C(=O)Nc2c(Cl)ccc(Cl)c21)c1ccc(N2CCCC2)cc1 (single isomer, unassigned) [Cmpd 18, 4,7-Dichloro-3-hydroxy-3-(2-oxo-2-(4-(pyrrolidin-1-yl)phenyl)ethyl)indolin-2-one]
